We go through 17 molecules from patent US12479827B2, “Heteroaromatic carboxamide derivatives as plasma kallikrein inhibitors” (Boehringer Ingelheim International GmbH, priority 2020, dated 2025).

Experiment [1] has as its target T1, Human PKK (Homo sapiens, UniProt P03952).
T1 construct: purchased Enzyme Research Laboratories
Briefly: Inhibition of PKK using an endpoint assay (human PKK). The settings on record: fluorogenic substrate H-Pro-Phe-Arg-AMC, 1 h room temperature, method names human or rat PKK, table does not say which. Type of experiment: biochemical. In short, it runs like this: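 Human PKK inhibition measured in 100 mM Tris, 150 mM NaCl, pH 7.8, 0.1% BSA, 0.05% Tween20, 1% DMSO. Endpoint format: reaction stopped with PPACK II at 1 μM final, fluorescence read at 355 nm excitation/460 nm emission.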

The target in experiment [2] is T2, PKK in kaolin activated human platelet poor plasma (Homo sapiens, UniProt P03952).
T2 construct: Platelet poor plasma (PPP) obtained from human wholeblood; from tissue
T2 sequence (P03952 391-638 limits assumed): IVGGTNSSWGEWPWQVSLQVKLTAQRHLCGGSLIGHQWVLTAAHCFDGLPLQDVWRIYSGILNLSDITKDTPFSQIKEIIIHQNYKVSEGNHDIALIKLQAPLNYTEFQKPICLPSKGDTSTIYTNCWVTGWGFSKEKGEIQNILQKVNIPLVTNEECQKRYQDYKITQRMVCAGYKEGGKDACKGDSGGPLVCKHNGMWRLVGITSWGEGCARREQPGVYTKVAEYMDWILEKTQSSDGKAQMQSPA
T2 sequence (P03952 20-390 limits assumed): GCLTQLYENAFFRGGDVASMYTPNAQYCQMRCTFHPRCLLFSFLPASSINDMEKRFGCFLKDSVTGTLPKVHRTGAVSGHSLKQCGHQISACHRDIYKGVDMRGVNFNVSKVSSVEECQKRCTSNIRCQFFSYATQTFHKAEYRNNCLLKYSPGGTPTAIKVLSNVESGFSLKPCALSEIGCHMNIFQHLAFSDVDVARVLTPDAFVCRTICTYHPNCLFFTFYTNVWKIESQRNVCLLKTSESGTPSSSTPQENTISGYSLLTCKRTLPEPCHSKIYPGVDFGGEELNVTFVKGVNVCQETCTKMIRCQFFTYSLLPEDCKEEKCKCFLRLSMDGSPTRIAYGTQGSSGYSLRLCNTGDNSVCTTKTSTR
Description: Inhibition of PKK in kaolin activated human PPP.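 Note: readout is the rate of fluorogenic substrate cleavage in rfu per min.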 Type of experiment: biochemical. The settings on record: 25-750 μg/mL kaolin, global fit, text b200 calls the values IC90. On the procedure:
Platelet poor plasma (PPP) obtained from human wholeblood, anticoagulated with Na-Citrate, is incubated with various concentrations of the test compound together with either 25, 75, 250, or 750 μg/mL kaolin in assay buffer for 20 min at 37° C. such that for each kaolin dose used a concentration response is obtained for the test compound.

T1 sequence (P03952 20-390 limits assumed): as above
T1 sequence (P03952 391-638 limits assumed): as the sequence (P03952 391-638 limits assumed) above

A word on the IC50: it is the concentration that inhibits the measured activity by half. In the case of `Cn1cnc2c1CC[C@H]2NC(=O)c1cn(Cc2ccc(N3CC4(CC4)C3)nc2)cn1` [Example 74, 1-[(6-{5-Azaspiro[2.3]hexan-5-yl}pyridin-3-yl)-methyl]-N-[(4R)-1-methyl-1H,4H,5H,6H-cyclopenta[d]imidazol-4-yl]-1H-imidazole-4-carboxamide], the 50% inhibitory concentration (IC50) in experiment [1] was found to be 6.9 nM; in experiment [2], 321 nM.

For `CCc1nc(N2CC3C(C2)C3(F)F)ccc1Cn1cnc(C(=O)N[C@@H]2CCc3c2ncn3C)c1` (stereo partly drawn) [Example 76, 1-[(6-{6,6-Difluoro-3-azabicyclo[3.1.0]hexan-3-yl}-2-ethylpyridin-3-yl)methyl]-N-[(4R)-1-methyl-1H,4H,5H,6H-cyclopenta[d]imidazol-4-yl]-1H-imidazole-4-carboxamide], the figures for the half-maximal inhibitory concentration (IC50) in experiment [1] and in experiment [2] were 0.6 nM and 270 nM, respectively.

In the case of `COCc1nc(N2CC3(CC3)C2)ccc1Cn1cnc(C(=O)N[C@@H]2CCc3c2ncn3C)c1` [Example 77, 1-[(6-{5-Azaspiro[2.3]hexan-5-yl}-2-(methoxymethyl)-pyridin-3-yl)methyl]-N-[(4R)-1-methyl-1H,4H,5H,6H-cyclopenta[d]imidazol-4-yl]-1H-imidazole-4-carboxamide], the half-inhibitory concentration (IC50) in experiment [1] is 3.3 nM; in experiment [2], 197 nM.

Regarding `COCc1nc(N2CC3(CC3)C2)ccc1Cn1cc(C(=O)N[C@@H]2CCc3c2ncn3C)cn1` [Example 78, 1-[(6-{5-Azaspiro[2.3]hexan-5-yl}-2-(methoxymethyl)-pyridin-3-yl)methyl]-N-[(4R)-1-methyl-1H,4H,5H,6H-cyclopenta[d]imidazol-4-yl]-1H-pyrazole-4-carboxamide], the concentration for half-maximal inhibition (IC50) came out at 6.8 nM in experiment [1] and 317 nM in experiment [2].

`Cn1cnc2c1CC[C@H]2NC(=O)c1cnn(Cc2ccc(N3CC4(CC4)C3)nc2CO)c1` [Example 79, 1-[(6-{5-Azaspiro[2.3]hexan-5-yl}-2-(hydroxymethyl)-pyridin-3-yl)methyl]-N-[(4R)-1-methyl-1H,4H,5H,6H-cyclopenta[d]imidazol-4-yl]-1H-pyrazole-4-carboxamide]: the half-inhibitory concentration (IC50) is 5.5 nM in experiment [1] and 249 nM in experiment [2].

For `Cn1cnc2c1CC[C@H]2NC(=O)c1cnn(Cc2ccc(N3CC4CC4C3)nc2CC#N)c1` (stereo partly drawn) [Example 81, 1-[(6-{3-Azabicyclo[3.1.0]hexan-3-yl}-2-(cyanomethyl)-pyridin-3-yl)methyl]-N-[(4R)-1-methyl-1H,4H,5H,6H-cyclopenta[d]imidazol-4-yl]-1H-pyrazole-4-carboxamide], the values for the IC50 in experiment [1] and in experiment [2] were 1.3 nM and 117 nM, respectively.

Regarding `C[C@@H](O)c1nc(N2CC3CC3C2)ccc1Cn1cc(C(=O)N[C@@H]2CCc3c2ncn3C)cn1` (stereo partly drawn) [Example 82, 1-[(6-{3-Azabicyclo[3.1.0]hexan-3-yl}-2-[(1R)-1-hydroxy-ethyl]pyridin-3-yl)methyl]-N-[(4R)-1-methyl-1H,4H,5H,6H-cyclopenta[d]imidazol-4-yl]-1H-pyrazole-4-carboxamide], the values for the IC50 in experiment [1] and in experiment [2] were 0.8 nM and 117 nM, respectively.

In the case of `C[C@H](O)c1nc(N2CC3CC3C2)ccc1Cn1cc(C(=O)N[C@@H]2CCc3c2ncn3C)cn1` (stereo partly drawn) [Example 83, 1-[(6-{3-Azabicyclo[3.1.0]hexan-3-yl}-2-[(1S)-1-hydroxy-ethyl]pyridin-3-yl)methyl]-N-[(4R)-1-methyl-1H,4H,5H,6H-cyclopenta[d]imidazol-4-yl]-1H-pyrazole-4-carboxamide], the results for the IC50 in experiment [1] and in experiment [2] were 1.7 nM and 594 nM, respectively.

Regarding `Cn1cnc2c1CC[C@H]2NC(=O)c1cnn(Cc2ccc(N3CC4CC4C3)nc2C(C)(C)O)c1` (stereo partly drawn) [Example 84, 1-[(6-{3-Azabicyclo[3.1.0]hexan-3-yl}-2-(2-hydroxypropan-2-yl)pyridin-3-yl)methyl]-N-[(4R)-1-methyl-1H,4H,5H,6H-cyclopenta[d]imidazol-4-yl]-1H-pyrazole-4-carboxamide], the IC50 in experiment [1] is 0.7 nM; in experiment [2] it was 209 nM.

As to `Cn1cnc2c1CC[C@H]2NC(=O)c1cnn(Cc2ccc(N3CC4CC4C3)nc2CCO)c1` (stereo partly drawn) [Example 85, 1-[(6-{3-Azabicyclo[3.1.0]hexan-3-yl}-2-(2-hydroxyethyl)-pyridin-3-yl)methyl]-N-[(4R)-1-methyl-1H,4H,5H,6H-cyclopenta[d]imidazol-4-yl]-1H-pyrazole-4-carboxamide], the results for the half-inhibitory concentration (IC50) in experiment [1] and in experiment [2] were 0.8 nM and 132 nM, respectively.

Consider `Cn1cnc2c1CC[C@H]2NC(=O)c1cn(Cc2ccc(N3CC4(CC4)C3)nc2CO)cn1` [Example 87, 1-[(6-{5-Azaspiro[2.3]hexan-5-yl}-2-(hydroxymethyl)-pyridin-3-yl)methyl]-N-[(4R)-1-methyl-1H,4H,5H,6H-cyclopenta[d]imidazol-4-yl]-1H-imidazole-4-carboxamide], for which the IC50 in experiment [1] came out at 3.3 nM; in experiment [2], 177 nM.

In the case of `CC(O)c1nc(N2CC3CC3C2)ccc1Cn1cc(C(=O)N[C@@H]2CCc3c2ncn3C)cn1` (stereo partly drawn) [Example 88, 1-[(6-{3-Azabicyclo[3.1.0]hexan-3-yl}-2-(1-hydroxyethyl)-pyridin-3-yl)methyl]-N-[(4R)-1-methyl-1H,4H,5H,6H-cyclopenta[d]imidazol-4-yl]-1H-pyrazole-4-carboxamide], the IC50 turned out to be 0.9 nM in experiment [1] and 139 nM in experiment [2].

Regarding `Cn1cnc2c1CC[C@H]2NC(=O)c1cnn(Cc2ncc(N3CC4CC4C3)nc2CO)c1` (stereo partly drawn) [Example 89, 1-[(5-{3-Azabicyclo[3.1.0]hexan-3-yl}-3-(hydroxymethyl)-pyrazin-2-yl)methyl]-N-[(4R)-1-methyl-1H,4H,5H,6H-cyclopenta[d]imidazol-4-yl]-1H-pyrazole-4-carboxamide], the results for the concentration for half-maximal inhibition (IC50) in experiment [1] and in experiment [2] were 77.5 nM and 3430 nM, respectively.

For the molecule `Cn1cnc2c1CC[C@H]2NC(=O)c1cn(Cc2ccc(N3CC4CC4C3)nc2CO)nn1` (stereo partly drawn) [Example 91, 1-[(6-{3-Azabicyclo[3.1.0]hexan-3-yl}-2-(hydroxymethyl)-pyridin-3-yl)methyl]-N-[(4R)-1-methyl-1H,4H,5H,6H-cyclo-penta[d]imidazol-4-yl]-1H-1,2,3-triazole-4-carboxamide], the IC50 in experiment [1] was determined as 2.1 nM; in experiment [2], 439 nM.

For the molecule `COCc1nc(N2CC3CC3C2)ccc1Cn1cc(C(=O)N[C@@H]2CCc3c2ncn3C)nn1` (stereo partly drawn) [Example 92, 1-[(6-{3-Azabicyclo[3.1.0]hexan-3-yl}-2-(methoxymethyl)-pyridin-3-yl)methyl]-N-[(4R)-1-methyl-1H,4H,5H,6H-cyclo-penta[d]imidazol-4-yl]-1H-1,2,3-triazole-4-carboxamide], the IC50 in experiment [1] worked out at 2.8 nM; in experiment [2], 307 nM.

`Cn1cnc2c1CC[C@H]2NC(=O)c1cnn(Cc2ccc(N3CC4C(C3)C4(F)F)nc2CO)c1` (stereo partly drawn) [Example 93, 1-[(6-{6,6-Difluoro-3-azabicyclo[3.1.0]hexan-3-yl}-2-(hydroxymethyl)pyridin-3-yl)methyl]-N-[(4R)-1-methyl-1H,4H,5H,6H-cyclopenta-[d]imidazol-4-yl]-1H-pyrazole-4-carboxamide]: the 50% inhibitory concentration (IC50) in experiment [1] was 1.4 nM; in experiment [2], 110 nM.

Take `Cc1nc(N2CC3C(C2)C3(F)F)cnc1Cn1cc(C(=O)N[C@@H]2CCc3c2ncn3C)nn1` (stereo partly drawn) [Example 94, 1-[(5-{6,6-Difluoro-3-azabicyclo[3.1.0]hexan-3-yl}-3-methylpyrazin-2-yl)methyl]-N-[(4R)-1-methyl-1H,4H,5H,6H-cyclopenta[d]imidazol-4-yl]-1H-1,2,3-triazole-4-carboxamide]: the IC50 amounted to 10.8 nM in experiment [1] and 1760 nM in experiment [2].
